Results: patent US9453051B2, “Cyclosporin derivatives” (priority 2011, dated 2016)

What was measured:
calcineurin = calcineurin (Homo sapiens, UniProt P62937+P63098+Q08209); test: Inhibition of the phosphatase activity of calcineurin (scintillation-proximity-assay, in presence of Cyp18);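 also: calcineurin dephosphorylation of a ³³P-labelled RII phosphopeptide, captured on streptavidin-coated wells and read by scintillation counting, with uninhibited enzyme activity taken as 100%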
Method: The measurement was carried out by incubation of 10 μMol of the biotinylated phosphopeptide [sequence]pSer-Val-Ala-Ala-Glu (MW=2192.0) (RH-peptide) marked with ^33P in a sample buffer (40 mM Tris-HCl, pH 7.5, 100 mM NaCl, 6 mM MgCl2, 0.5 mM dithiothreitol, 1 mM. CaCl2, 0.1 mg/ml bovine serum albumin) in presence of 50 nM calmodulin and 1.32 nM calcineurin at 30° C. for 20 min in a 96 well micro titer plate (Costar, Bodenheim, Germany). The total volume of the assay/well was 100 μl. After this reaction time a 90 μl aliquot of the reaction mixture was transferred into a scintillation cavity coated with streptavidin and incubated for 20 min at 22° C. After a washing step the RII phosphopeptide-associated ^33P radioactivity was measured in a MicroBeta Top Counter (Wallac) and the enzyme activity was indicated as average value of three measurements±S.D. The uninhibited dephosphorylation activity has been set on 100%.

[1] = biological target: recombinant human wild type Cyp18 (Cyp18 wt) (Homo sapiens, UniProt P62937); test: biochemical
Sequence of recombinant human wild type Cyp18 (Cyp18 wt) (P62937 whole entry): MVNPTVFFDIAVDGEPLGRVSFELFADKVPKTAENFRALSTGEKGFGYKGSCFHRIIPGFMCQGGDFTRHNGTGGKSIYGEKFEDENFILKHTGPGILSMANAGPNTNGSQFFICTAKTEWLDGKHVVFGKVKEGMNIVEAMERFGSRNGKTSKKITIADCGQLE
Method: The determination was performed on a UV/Vis spectrometer at 10° C. cuvette temperature, whereby the device is operated at 390 nm in kinetic-mode (measurement buffer: 35 mM HEPES/NaOH pH 7.8 (AppliChem A1069)). 0.58 nM recombinant human wild type Cyp18 (Cyp18 wt), 2.33 nM bovine serum albumin (BSA) and 1 mg/ml chymotrypsin (Merck) solved in 35 mM HEPES/NaOH pH 7.8 as well as different concentration of each test substance, where appropriate, were in the cuvette. The reaction was started with a stock solution of Suc-Ala-Ala-Pro-Phe-4-nitroanilide (Bachem, 10 mg/ml DMSO) as substrate so that a final substrate concentration of 32 μM resulted. The extinction-time-curves were evaluated after expiry of the fast phase of the reaction i.e. after approximately 60 seconds according to a rate equation of a first-order reaction.

| Compound | IC50 (calcineurin) | IC50 [1] |
| --- | --- | --- |
| CC[C@@H]1NC(=O)[C@H]([C@H](O)[C@H](C)Cc2nc3cc(C(=O)Oc4ccccc4C(=O)O)ccc3[nH]2)N(C)C(=O)[C@H](C(C)C)N(C)C(=O)[C@H](CC(C)C)N(C)C(=O)[C@H](CC(C)C)N(C)C(=O)[C@@H](C)NC(=O)[C@H](C)NC(=O)[C@H](CC(C)C)N(C)C(=O)[C@H](C(C)C)NC(=O)[C@H](CC(C)C)N(C)C(=O)CN(C)C1=O [Compound 65] | > 10000 nM | 20.2 nM |
| CC[C@@H]1NC(=O)[C@H]([C@H](O)[C@H](C)Cc2nc3cc(C(=O)NCCOCCOCCNC(=O)[C@@H]4C[C@H](C(=O)O)C[C@H](C(=O)O)C4)ccc3[nH]2)N(C)C(=O)[C@H](C(C)C)N(C)C(=O)[C@H](CC(C)C)N(C)C(=O)[C@H](CC(C)C)N(C)C(=O)[C@@H](C)NC(=O)[C@H](C)NC(=O)[C@H](CC(C)C)N(C)C(=O)[C@H](C(C)C)NC(=O)[C@H](CC(C)C)N(C)C(=O)CN(C)C1=O [Compound 67] | > 10000 nM | 8.4 nM |
| CC[C@@H]1NC(=O)[C@H]([C@H](O)[C@H](C)Cc2nc3cc(/C=C/C(=O)OC(C)(C)C)ccc3[nH]2)N(C)C(=O)[C@H](C(C)C)N(C)C(=O)[C@H](CC(C)C)N(C)C(=O)[C@H](CC(C)C)N(C)C(=O)[C@@H](C)NC(=O)[C@H](C)NC(=O)[C@H](CC(C)C)N(C)C(=O)[C@H](C(C)C)NC(=O)[C@H](CC(C)C)N(C)C(=O)CN(C)C1=O [Compound 14] | 3200 nM | 36.4 nM |
| CC[C@@H]1NC(=O)[C@H]([C@H](O)[C@H](C)Cc2nc3c(C(=O)O)cccc3n2C)N(C)C(=O)[C@H](C(C)C)N(C)C(=O)[C@H](CC(C)C)N(C)C(=O)[C@H](CC(C)C)N(C)C(=O)[C@@H](C)NC(=O)[C@H](C)NC(=O)[C@H](CC(C)C)N(C)C(=O)[C@H](C(C)C)NC(=O)[C@H](CC(C)C)N(C)C(=O)CN(C)C1=O [Compound 56] | > 10000 nM | > 1000 nM |
| CC[C@@H]1NC(=O)[C@H]([C@H](O)[C@H](C)Cc2nc3cc(C(=O)NCCN4CCN(C(=O)CCC(=O)O)CC4)ccc3[nH]2)N(C)C(=O)[C@H](C(C)C)N(C)C(=O)[C@H](CC(C)C)N(C)C(=O)[C@H](CC(C)C)N(C)C(=O)[C@@H](C)NC(=O)[C@H](C)NC(=O)[C@H](CC(C)C)N(C)C(=O)[C@H](C(C)C)NC(=O)[C@H](CC(C)C)N(C)C(=O)CN(C)C1=O [Compound 54] | 7200 nM | 7.1 nM |
| CC[C@@H]1NC(=O)[C@H]([C@H](O)[C@H](C)CC2=N[C@@H]3CS[C@H](CCCCC(=O)O)[C@@H]3N2)N(C)C(=O)[C@H](C(C)C)N(C)C(=O)[C@H](CC(C)C)N(C)C(=O)[C@H](CC(C)C)N(C)C(=O)[C@@H](C)NC(=O)[C@H](C)NC(=O)[C@H](CC(C)C)N(C)C(=O)[C@H](C(C)C)NC(=O)[C@H](CC(C)C)N(C)C(=O)CN(C)C1=O [Compound 4] | > 10000 nM | 264 nM |
| CC[C@@H]1NC(=O)[C@H]([C@H](O)[C@H](C)Cc2nc3cc(C(=O)NCCOCCOCCNC(=O)CCC(=O)O)ccc3[nH]2)N(C)C(=O)[C@H](C(C)C)N(C)C(=O)[C@H](CC(C)C)N(C)C(=O)[C@H](CC(C)C)N(C)C(=O)[C@@H](C)NC(=O)[C@H](C)NC(=O)[C@H](CC(C)C)N(C)C(=O)[C@H](C(C)C)NC(=O)[C@H](CC(C)C)N(C)C(=O)CN(C)C1=O [Compound 68] | > 10000 nM | 8.5 nM |
| CC[C@@H]1NC(=O)[C@H]([C@H](O)[C@H](C)Cc2nc3cc(C(=O)NCCN4CCOCC4)ccc3[nH]2)N(C)C(=O)[C@H](C(C)C)N(C)C(=O)[C@H](CC(C)C)N(C)C(=O)[C@H](CC(C)C)N(C)C(=O)[C@@H](C)NC(=O)[C@H](C)NC(=O)[C@H](CC(C)C)N(C)C(=O)[C@H](C(C)C)NC(=O)[C@H](CC(C)C)N(C)C(=O)CN(C)C1=O [Compound 53] | 4200 nM | 12.7 nM |
